Measurements: patent US20240294467A1, “USP9X Inhibitors” (ProDeg, LLC, priority 2021, published 2024)
Like-named read-outs stand apart in the source and are kept apart here. Blank lines part the entries; values can stand above or below the compound they belong to.

Tests used:
[1] = target: CYLD (Homo sapiens (Human), UniProt Q9NQC7); assay: DUB selectivity panel using ubiquitin-AMC; type: biochemical; details: 5 μM compound, 500 nM Ubiquitin-AMC
From the text: (§1) Compounds were screened for DUB inhibitory and apoptotic activity against other deubiquitylases in a DUB selectivity panel using ubiquitin-AMC (BPS Bioscience Inc.).

[2] = target: USP10 (Homo sapiens (Human), UniProt Q14694); assay: DUB selectivity panel using ubiquitin-AMC; type: biochemical; details: 5 μM compound, 500 nM Ubiquitin-AMC
From the text: as §1

[3] = target: USP13 (Homo sapiens (Human), UniProt Q92995); assay: DUB selectivity panel using ubiquitin-AMC; type: biochemical; details: 5 μM compound, 500 nM Ubiquitin-AMC
From the text: as §1

[4] = target: USP7 (Homo sapiens (Human), UniProt Q93009); assay: DUB selectivity panel using ubiquitin-AMC; type: biochemical
From the text: as §1

[5] = target: USP4 (Homo sapiens (Human), UniProt Q13107); assay: DUB selectivity panel using ubiquitin-AMC; type: biochemical; details: 5 μM compound, 500 nM Ubiquitin-AMC
From the text: as §1

[6] = target: USP5 (Homo sapiens (Human), UniProt P45974); assay: DUB selectivity panel using ubiquitin-AMC; type: biochemical; details: 5 μM compound, 500 nM Ubiquitin-AMC
From the text: as §1

[7] = target: USP25 (Homo sapiens (Human), UniProt Q9UHP3); assay: DUB selectivity panel using ubiquitin-AMC; type: biochemical; details: 5 μM compound, 500 nM Ubiquitin-AMC
From the text: as §1

[8] = target: VCPIP (Homo sapiens (Human), UniProt Q96JH7); assay: DUB selectivity panel using ubiquitin-AMC; type: biochemical; details: 5 μM compound, 500 nM Ubiquitin-AMC
From the text: as §1

[9] = target: USP30 (Homo sapiens (Human), UniProt Q70CQ3); assay: DUB selectivity panel using ubiquitin-AMC; type: biochemical; details: 5 μM compound, 500 nM Ubiquitin-AMC
From the text: as §1

[10] = target: USP28 (Homo sapiens (Human), UniProt Q96RU2); assay: DUB selectivity panel using ubiquitin-AMC; type: biochemical
From the text: as §1

[11] = target: USP15 (Homo sapiens (Human), UniProt Q9Y4E8); assay: DUB selectivity panel using ubiquitin-AMC; type: biochemical; details: 5 μM compound, 500 nM Ubiquitin-AMC
From the text: as §1

[12] = target: USP2 (Homo sapiens (Human), UniProt O75604); assay: DUB selectivity panel using ubiquitin-AMC; type: biochemical
From the text: as §1

[13] = target: UCH-L3 (Homo sapiens (Human), UniProt P15374); assay: DUB selectivity panel using ubiquitin-AMC; type: biochemical; details: 5 μM compound, 500 nM Ubiquitin-AMC
From the text: as §1

[14] = system: BT-549 cancer cells; assay: WST-1 cell viability assay; type: cell-based, human; details: BT-549 cells
Experimental: (§2) Compound Compound 9A was tested for the ability to inhibit the proliferation of Mia-Paca-2 pancreatic cancer cells. Mia-Paca-2 and MDA-MB-231 cells were seeded into the wells of a 96 well tissue culture plate in complete medium (10% fetal calf serum) and incubated overnight at 37° C./5% CO2). The medium was exchanged for fresh medium containing varying concentrations of Compound 9A and the plate was incubated for 72 hours at 37° C./5% CO2. The viability of cells at the end of this incubation was assessed with the WST-1 reagent. To 10 ml of warm (37° C.) complete medium, 1 ml WST-1 reagent was added. The medium from the wells of the plate with the Mia-Paca-2 cells was removed and replaced with 100 μL of the WST-1 reagent in complete medium. The plate was incubated at 37 37° C./5% CO2. At timed intervals the absorbance at 450 nm was determined for each well in a UVNis plate reader. For each well the slope of the plot of the absorbance 450 nm vs time was determined. The readings were normalized to that of the wells for the untreated control and a dose-response curve was plotted. A fit to the data was made from a four parameter, variable slope program (GraphPad Prism) and the IC50 was determined.
The same procedures were also applied to the compounds Compound 7A, Compound 6A, and Compound 8A to test their inhibitory activities against RKO colon, Mia-Paca-2 pancreatic and BT-549 cancer cells.

[15] = system: U937 cells; assay: WST-1 cell viability assay; type: cell-based; details: for IC50: Homo sapiens, U-937, 72-hour treatment
Experimental: as §2
The effect of Compound 7A on U937 cells was assessed using the same experiment described in the Inhibitory Activities against the Proliferation of Mia-Paca-2 and Other Cancer Cells section above. In response to treatment with Compound 7A, proliferation of U937 leukemia cells was inhibited and induced apoptosis was obsessed by trypan blue staining.
U937 cells were treated with the Bcl-2/Bcl-xL inhibitor ABT737 72 hours at varying concentrations and underwent western blot analysis.

[16] = system: SR; assay: ONCOLINES Profiler proliferation; type: cell-based; details: Homo sapiens, large cell immunoblastic lymphoma
From the text: (§3) The compounds were profiled on an ONCOLINES™ Profiler (Netherlands Translational Research Center) assayed with 66 cancer cell lines to determine if they were capable of inhibiting the proliferation of these cancer cells.

[17] = system: SUP-T1; assay: ONCOLINES Profiler proliferation; type: cell-based; details: Homo sapiens; SUP-T1, T-cell lymphoblastic lymphoma
From the text: as §3

[18] = system: A388; assay: ONCOLINES Profiler proliferation; type: cell-based; details: A388, epidermal carcinoma
From the text: as §3

[19] = system: A-204; assay: ONCOLINES Profiler proliferation; type: cell-based; details: Homo sapiens, A204; A-204, rhabdomyosarcoma
From the text: as §3

[20] = system: NCI-H460; assay: ONCOLINES Profiler proliferation; type: cell-based; details: Homo sapiens; NCI-H460, large cell lung carcinoma
From the text: as §3

[21] = system: MIA PaCa-2; assay: ONCOLINES Profiler proliferation; type: cell-based; details: Homo sapiens; MIA PaCa-2, pancreatic ductal carcinoma
From the text: as §3

[22] = system: OVCAR-3; assay: ONCOLINES Profiler proliferation; type: cell-based; details: Homo sapiens; OVCAR-3, ovary adenocarcinoma
From the text: as §3

[23] = 5 μM compound, 500 nM Ubiquitin-AMC

Sequence of USP2 (O75604 whole entry): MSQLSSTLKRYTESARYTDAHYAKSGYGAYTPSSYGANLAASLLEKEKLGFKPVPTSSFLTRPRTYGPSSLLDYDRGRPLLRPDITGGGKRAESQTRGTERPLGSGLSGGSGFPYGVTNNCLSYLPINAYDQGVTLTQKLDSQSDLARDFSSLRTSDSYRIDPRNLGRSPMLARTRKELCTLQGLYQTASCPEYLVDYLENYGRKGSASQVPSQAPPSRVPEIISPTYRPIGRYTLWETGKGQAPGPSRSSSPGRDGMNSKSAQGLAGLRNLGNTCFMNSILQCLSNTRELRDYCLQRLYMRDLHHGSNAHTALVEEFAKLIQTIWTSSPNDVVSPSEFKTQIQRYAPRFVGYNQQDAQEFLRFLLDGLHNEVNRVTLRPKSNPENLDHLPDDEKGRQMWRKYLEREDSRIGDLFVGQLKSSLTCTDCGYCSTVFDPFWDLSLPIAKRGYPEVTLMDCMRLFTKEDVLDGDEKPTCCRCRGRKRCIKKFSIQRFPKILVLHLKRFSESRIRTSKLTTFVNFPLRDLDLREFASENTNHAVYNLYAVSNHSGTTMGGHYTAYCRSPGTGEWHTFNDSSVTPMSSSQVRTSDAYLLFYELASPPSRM
Sequence of USP7 (Q93009 whole entry): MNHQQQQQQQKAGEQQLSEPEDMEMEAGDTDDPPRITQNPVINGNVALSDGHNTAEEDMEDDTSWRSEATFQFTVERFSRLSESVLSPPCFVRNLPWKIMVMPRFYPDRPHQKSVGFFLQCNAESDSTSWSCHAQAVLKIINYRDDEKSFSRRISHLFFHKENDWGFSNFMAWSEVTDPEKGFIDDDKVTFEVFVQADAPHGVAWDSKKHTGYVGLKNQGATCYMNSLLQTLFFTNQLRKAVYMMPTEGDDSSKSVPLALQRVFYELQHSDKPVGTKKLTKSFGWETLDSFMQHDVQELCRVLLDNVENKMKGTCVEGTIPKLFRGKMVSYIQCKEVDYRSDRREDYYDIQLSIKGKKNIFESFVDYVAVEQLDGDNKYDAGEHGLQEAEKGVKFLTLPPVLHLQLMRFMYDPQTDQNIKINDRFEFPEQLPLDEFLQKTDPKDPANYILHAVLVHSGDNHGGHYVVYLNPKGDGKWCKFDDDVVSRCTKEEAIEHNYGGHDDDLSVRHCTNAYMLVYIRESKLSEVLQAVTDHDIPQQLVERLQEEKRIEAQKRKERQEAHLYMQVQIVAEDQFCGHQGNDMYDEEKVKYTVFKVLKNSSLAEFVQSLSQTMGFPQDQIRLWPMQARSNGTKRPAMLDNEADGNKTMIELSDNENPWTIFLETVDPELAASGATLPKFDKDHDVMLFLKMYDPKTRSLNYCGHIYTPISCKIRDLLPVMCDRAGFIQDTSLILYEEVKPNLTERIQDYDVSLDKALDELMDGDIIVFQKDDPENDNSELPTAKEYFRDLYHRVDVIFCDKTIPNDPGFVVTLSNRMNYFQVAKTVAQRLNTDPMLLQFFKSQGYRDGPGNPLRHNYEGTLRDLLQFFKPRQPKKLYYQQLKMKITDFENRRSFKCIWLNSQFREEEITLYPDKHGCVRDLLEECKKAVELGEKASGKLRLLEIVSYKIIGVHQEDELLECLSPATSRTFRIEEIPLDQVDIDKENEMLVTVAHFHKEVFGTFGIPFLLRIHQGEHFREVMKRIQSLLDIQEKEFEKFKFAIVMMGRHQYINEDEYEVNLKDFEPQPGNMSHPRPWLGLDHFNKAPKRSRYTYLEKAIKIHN
Sequence of USP25 (Q9UHP3 whole entry): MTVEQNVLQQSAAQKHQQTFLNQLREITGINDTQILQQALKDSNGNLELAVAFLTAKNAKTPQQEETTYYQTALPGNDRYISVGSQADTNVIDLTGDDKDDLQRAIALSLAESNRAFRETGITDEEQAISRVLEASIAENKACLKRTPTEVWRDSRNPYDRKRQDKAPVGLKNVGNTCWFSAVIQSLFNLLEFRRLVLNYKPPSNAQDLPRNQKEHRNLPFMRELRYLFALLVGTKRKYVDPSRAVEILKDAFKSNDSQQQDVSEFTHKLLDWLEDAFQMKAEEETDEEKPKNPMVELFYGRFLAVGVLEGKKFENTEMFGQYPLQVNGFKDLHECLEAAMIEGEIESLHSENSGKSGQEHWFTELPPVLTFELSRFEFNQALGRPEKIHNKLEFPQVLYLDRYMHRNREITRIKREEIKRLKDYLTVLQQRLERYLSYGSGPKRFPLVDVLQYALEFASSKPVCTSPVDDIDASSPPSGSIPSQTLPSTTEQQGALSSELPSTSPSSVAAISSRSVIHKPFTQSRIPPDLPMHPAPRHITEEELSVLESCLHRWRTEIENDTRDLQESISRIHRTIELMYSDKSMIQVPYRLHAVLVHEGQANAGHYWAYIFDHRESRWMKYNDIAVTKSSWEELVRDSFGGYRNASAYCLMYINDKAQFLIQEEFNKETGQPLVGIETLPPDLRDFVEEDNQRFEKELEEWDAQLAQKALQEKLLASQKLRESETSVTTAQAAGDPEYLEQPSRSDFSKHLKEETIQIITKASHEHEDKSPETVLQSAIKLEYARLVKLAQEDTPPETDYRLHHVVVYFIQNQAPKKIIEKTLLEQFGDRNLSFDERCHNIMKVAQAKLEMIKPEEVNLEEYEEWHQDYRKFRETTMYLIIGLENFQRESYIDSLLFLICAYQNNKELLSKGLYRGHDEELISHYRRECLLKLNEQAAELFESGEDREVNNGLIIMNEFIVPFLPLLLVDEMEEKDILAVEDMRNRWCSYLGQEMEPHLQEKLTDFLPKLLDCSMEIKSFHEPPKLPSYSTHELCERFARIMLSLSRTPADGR
Sequence of CYLD (Q9NQC7 whole entry): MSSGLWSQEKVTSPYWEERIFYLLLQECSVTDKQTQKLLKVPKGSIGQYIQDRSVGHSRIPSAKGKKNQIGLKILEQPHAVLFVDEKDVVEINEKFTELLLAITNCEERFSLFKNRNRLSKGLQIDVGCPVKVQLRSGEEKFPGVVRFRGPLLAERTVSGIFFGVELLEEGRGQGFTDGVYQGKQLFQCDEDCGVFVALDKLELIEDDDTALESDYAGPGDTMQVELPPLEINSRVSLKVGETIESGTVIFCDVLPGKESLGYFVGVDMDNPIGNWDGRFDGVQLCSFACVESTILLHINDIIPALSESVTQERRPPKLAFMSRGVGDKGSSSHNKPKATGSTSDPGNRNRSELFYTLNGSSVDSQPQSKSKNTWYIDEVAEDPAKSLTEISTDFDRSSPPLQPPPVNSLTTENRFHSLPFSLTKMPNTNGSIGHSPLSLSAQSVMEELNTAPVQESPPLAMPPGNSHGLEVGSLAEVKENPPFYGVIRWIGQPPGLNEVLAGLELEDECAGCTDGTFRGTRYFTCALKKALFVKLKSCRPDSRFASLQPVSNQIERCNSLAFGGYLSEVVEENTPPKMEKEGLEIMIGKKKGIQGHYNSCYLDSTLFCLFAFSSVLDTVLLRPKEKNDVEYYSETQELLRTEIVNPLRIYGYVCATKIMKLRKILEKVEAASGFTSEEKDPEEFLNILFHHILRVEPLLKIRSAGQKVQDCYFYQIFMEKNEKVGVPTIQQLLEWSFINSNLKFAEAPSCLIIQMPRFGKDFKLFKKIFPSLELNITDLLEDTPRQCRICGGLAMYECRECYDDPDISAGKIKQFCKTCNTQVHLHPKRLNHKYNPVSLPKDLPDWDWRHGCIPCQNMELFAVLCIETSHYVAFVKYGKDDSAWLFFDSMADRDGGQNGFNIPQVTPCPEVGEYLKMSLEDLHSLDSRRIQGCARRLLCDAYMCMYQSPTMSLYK
Sequence of USP4 (Q13107 whole entry): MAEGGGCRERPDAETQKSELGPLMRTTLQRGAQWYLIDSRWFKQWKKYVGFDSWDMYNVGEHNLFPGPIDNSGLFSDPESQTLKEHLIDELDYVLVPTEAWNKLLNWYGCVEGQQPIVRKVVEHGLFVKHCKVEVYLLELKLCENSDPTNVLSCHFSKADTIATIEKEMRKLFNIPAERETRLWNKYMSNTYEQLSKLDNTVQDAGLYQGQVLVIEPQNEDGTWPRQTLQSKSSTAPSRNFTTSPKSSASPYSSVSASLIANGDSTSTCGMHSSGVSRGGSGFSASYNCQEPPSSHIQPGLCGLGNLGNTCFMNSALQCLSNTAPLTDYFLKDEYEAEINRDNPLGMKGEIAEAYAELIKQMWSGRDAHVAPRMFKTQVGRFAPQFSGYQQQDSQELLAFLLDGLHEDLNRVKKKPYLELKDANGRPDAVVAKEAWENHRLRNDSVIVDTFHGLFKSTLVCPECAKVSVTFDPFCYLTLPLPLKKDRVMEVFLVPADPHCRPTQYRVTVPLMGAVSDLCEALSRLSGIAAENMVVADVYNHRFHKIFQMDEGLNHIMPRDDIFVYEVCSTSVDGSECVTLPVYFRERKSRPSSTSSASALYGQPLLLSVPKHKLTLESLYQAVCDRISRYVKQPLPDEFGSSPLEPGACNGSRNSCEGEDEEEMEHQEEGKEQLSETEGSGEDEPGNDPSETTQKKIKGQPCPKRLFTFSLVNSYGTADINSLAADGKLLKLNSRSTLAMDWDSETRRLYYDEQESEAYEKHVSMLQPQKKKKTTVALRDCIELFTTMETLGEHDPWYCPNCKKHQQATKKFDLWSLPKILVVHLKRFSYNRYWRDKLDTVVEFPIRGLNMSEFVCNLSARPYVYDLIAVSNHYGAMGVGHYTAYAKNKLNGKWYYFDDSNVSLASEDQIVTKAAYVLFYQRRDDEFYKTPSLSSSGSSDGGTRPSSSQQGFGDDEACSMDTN
Sequence of UCH-L3 (P15374 whole entry): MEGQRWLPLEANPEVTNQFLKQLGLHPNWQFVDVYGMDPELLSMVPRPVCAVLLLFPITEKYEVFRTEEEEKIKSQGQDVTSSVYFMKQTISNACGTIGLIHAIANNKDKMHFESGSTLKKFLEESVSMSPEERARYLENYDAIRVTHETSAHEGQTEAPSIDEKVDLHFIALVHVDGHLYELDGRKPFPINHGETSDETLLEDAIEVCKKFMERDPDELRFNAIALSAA

- inhibition at 5 µM [1]: 0%
- inhibition of CYLD [1]: no detectable effect
- inhibition at 5 µM [2]: < 1%
- inhibition at 5 µM [3]: 0%
- inhibition of USP13 [3]: no detectable effect
- IC50 [4]: > 50 µM
- inhibition at 5 µM [4, 23]: 0%
- inhibition of USP7 [4, 23]: no detectable effect
- inhibition at 5 µM [5]: 0%
- inhibition of USP4 [5]: no detectable effect
- inhibition at 5 µM [6]: 0%
- inhibition of USP5 [6]: no detectable effect
- inhibition at 5 µM [7]: 0%
- inhibition of USP25 [7]: no detectable effect
- inhibition at 5 µM [8]: < 3%
- inhibition at 5 µM [9]: < 5%
- IC50 [10]: 15 µM
- inhibition at 5 µM [11]: < 2%
- IC50 [12]: > 50 µM
- inhibition at 5 µM [12, 23]: 0%
- inhibition of USP2 [12, 23]: no detectable effect
- inhibition at 5 µM [13]: 0%
- inhibition of UCH-L3 [13]: no detectable effect
SMILES: CN1CCOc2ccc(cc2)C(=O)NCc2cccc(c2)C(=O)N[C@@H](CC(C)(C)C)C(=O)Nc2ccc(cc2)CCN(C)C(=O)CC(C)(C)CC1=O [Compound 5A]

- IC50 ([15]; read-out: IC50 for the inhibition of U937): 270 nM
- IC50 ([15]; U937 cells, single agent, read-out: IC50, cell viability): 270 nM
- IC50 [20]: 2090 nM
- IC50 [21]: 790 nM
- IC50 [22]: 2400 nM
SMILES: CN1CCOc2ccc(cc2)C(=O)NCc2ccc(F)c(c2)C(=O)N[C@@H](CC(C)(C)C)C(=O)Nc2ccc(cc2)CCN(C)C(=O)CC(C)(C)CC1=O [Compound 7A]
- cell viability [14]: significant decreases
- enhancement in ABT737's potency / sensitivity of cells to ABT737 ([15]; U937 cells, co-treatment of 0.5 μM Compound 7A): 57 fold
- cell viability decreased to ([15]; U937 cells, when Mcl-1 level decreased by 50%): 0
- IC50 [16]: 1580 nM
- IC50 [17]: 4.29 µM
- IC50 [18]: 2390 nM
- IC50 [19]: 1360 nM
